Test results from patent US20040266849A1, “Therapeutic compounds for treating dyslipidemic conditions” (priority 2004, published 2004).

Tested on: ABCA1 mRNA
Experiment: Induction of ABCA1 mRNA levels in human primary macrophages
Assay type: cell-based
Conditions: Primary macrophage, 18 h + 6 h, vs DMSO control, read-out: Fold Induction of ABCA1 mRNA (Mean ± SEM)
Protocol: Induction of ABCA1 mRNA levels
Human Primary Macrophages were used to test the ability of LXR ligands to induce the expression of ABCA1 mRNA. The collection and purification of monocytes and their subsequent differentiation into macrophages by culturing in Teflon jars for 7-9 days was performed according to Wright and Silverstein J. Exp. Med. V156, October 1982 pp. 1149-1164. Cells were harvested from the Teflon jars and seeded into appropriate vessels in RPMI1640 plus 12% human serum and antibiotics. Cells were allowed to recover overnight before treatment. Treatment was for 18 hours with the described compounds, followed by a re-application of fresh compounds for an additional 6 hours in DMEM minus Phenol Red with 10% charcoal stripped FCS. The cells were harvested and total RNA prepared using the phenol/guanidine isothiocyanate method as supplied and described by Molecular Research Center, Inc. (TRI REAGENT® Cat. No. TR 118). ABCA1 mRNA levels in the total RNA were measured using the TaqMan® mRNA quantitation system, following protocols published by the manufacturer (Perkin-Elmer). The oligonucleotide PCR primers used to detect ABCA1 were: […]
The oligonucleotide probe used was:
ABCA1 mRNA levels in each sample were normalized to the mRNA levels for the 23 kDa highly basic protein. The oligonucleotide PCR primers used to detect the 23 kDa highly basic protein were: […]

**Q.** Which fold induction at 10 µM does the source give for `CC(C)CC[C@@H](O)[C@@H](C)[C@H]1CC[C@H]2[C@@H]3CC=C4C[C@@H](O)CC[C@]4(C)[C@H]3CC[C@]12C` [22-(R)-hydroxycholesterol, reference compound] here?
**A.** Its fold induction at 10 µM is 8 ± 1.37.

**Q.** How did the fold induction at 0.1 µM (0.1 μM) turn out when `CCCc1c(OCCCN(C)C(=O)CC(C)(C)CC(=O)O)ccc2c(C(F)(F)F)noc12` [Compound (3d)] was run?
**A.** Its fold induction at 0.1 µM is 0.9 ± 0.2.

**Q.** What about the fold induction at 1 µM (1.0 μM) of the same molecule?
**A.** The fold induction at 1 µM was 3.3 ± 0.3.

**Q.** And the fold induction at 10 µM?
**A.** The fold induction at 10 µM was 13.6 ± 1.1.
